In ChEMBL document CHEMBL4052831, “The Discovery of N-(1-Methyl-5-(trifluoromethyl)-1H-pyrazol-3-yl)-5-((6- ((methylamino)methyl)pyrimidin-4-yl)oxy)-1H-indole-1-carboxamide (Acrizanib), a VEGFR-2 Inhibitor Specifically Designed for Topical Ocular Delivery, as a Therapy for Neovascular Age-Related Macular Degeneration” (J Med Chem, 2018):
The source made the active and inactive calls. The calls are words filed in the database; no cut-off is given here.

Experiments:
[1] = tested on: Mus musculus; assay: Antiangiogenic activity in C57BL/6 mouse laser-induced choroidal neovascularization model assessed as inhibition of neovascularization administered 1% suspension using 3.5 uL topical drop to both eyes every 3 hrs for 9 hrs by microscopic analysis
[2] = Intrinsic clearance in rat liver microsomes at 1 uM after 5 to 30 mins by LC-MS/MS analysis; format: ADME, microsome; conditions: read-out: CLH
[3] = biological target: Vascular endothelial growth factor receptor 2 (Homo sapiens, UniProt P35968)
Description: Inhibition of KDR (unknown origin) expressed in mouse Ba/F3 cells

[4] = tested on: Rattus norvegicus; assay: Antiangiogenic activity in Brown Norway rat laser-induced choroidal neovascularization model assessed as inhibition of neovascularization administered 1% suspension using 4 uL topical drop to both eyes every 3 hrs for 9 hrs by microscopic analysis
[5] = AUC (0 to last) in posterior eye cup of Brown Norway rat administered 0.3% suspension using 4 uL topical drop to both eyes as single dose by LC-MS/MS analysis; format: ADME; conditions: topical or ocular, 4 uL of 0.3% suspension per eye
[6] = Cmax in posterior eye cup of Brown Norway rat administered 0.3% suspension using 4 uL topical drop to both eyes as single dose by LC-MS/MS analysis; format: ADME; conditions: topical or ocular, 4 uL of 0.3% suspension per eye
[7] = AUC (0 to last) in retina of Brown Norway rat administered 0.3% suspension using 4 uL topical drop to both eyes as single dose by LC-MS/MS analysis; format: ADME, tissue-based; set-up: dose 4 uL, time 0 - last, route ophthalmic; conditions: topical or ocular, 4 uL of 0.3% suspension per eye
[8] = Cmax in retina of Brown Norway rat administered 0.3% suspension using 4 uL topical drop to both eyes as single dose by LC-MS/MS analysis; format: ADME, tissue-based; set-up: dose 4 uL, route ophthalmic; conditions: topical or ocular, 4 uL of 0.3% suspension per eye
[9] = AUC (0 to last) in plasma of Brown Norway rat administered 0.3% suspension using 4 uL topical drop to both eyes as single dose by LC-MS/MS analysis; format: ADME; set-up: dose 4 uL, time 0 - last, route ophthalmic; conditions: topical or ocular, 4 uL of 0.3% suspension per eye
[10] = Cmax in plasma of Brown Norway rat administered 0.3% suspension using 4 uL topical drop to both eyes as single dose by LC-MS/MS analysis; format: ADME; set-up: dose 4 uL, route ophthalmic; conditions: topical or ocular, 4 uL of 0.3% suspension per eye
[11] = AUC (0 to last) in posterior eye cup of Brown Norway rat administered 0.3% suspension using 4 uL topical drop to both eyes every 3 hrs for 9 hrs over 10 days and single drop to each eye on day 11 by LC-MS/MS analysis; format: ADME; conditions: topical or ocular, 4 uL of 0.3% suspension per eye
[12] = Cmax in posterior eye cup of Brown Norway rat administered 0.3% suspension using 4 uL topical drop to both eyes every 3 hrs for 9 hrs over 10 days and single drop to each eye on day 11 by LC-MS/MS analysis; format: ADME; conditions: topical or ocular, 4 uL of 0.3% suspension per eye
[13] = AUC (0 to last) in retina of Brown Norway rat administered 0.3% suspension using 4 uL topical drop to both eyes every 3 hrs for 9 hrs over 10 days and single drop to each eye on day 11 by LC-MS/MS analysis; format: ADME; conditions: topical or ocular, 4 uL of 0.3% suspension per eye
[14] = Cmax in retina of Brown Norway rat administered 0.3% suspension using 4 uL topical drop to both eyes every 3 hrs for 9 hrs over 10 days and single drop to each eye on day 11 by LC-MS/MS analysis; format: ADME; conditions: topical or ocular, 4 uL of 0.3% suspension per eye
[15] = AUC (0 to last) in plasma of Brown Norway rat administered 0.3% suspension using 4 uL topical drop to both eyes every 3 hrs for 9 hrs over 10 days and single drop to each eye on day 11 by LC-MS/MS analysis; format: ADME; conditions: topical or ocular, 4 uL of 0.3% suspension per eye
[16] = Cmax in plasma of Brown Norway rat administered 0.3% suspension using 4 uL topical drop to both eyes every 3 hrs for 9 hrs over 10 days and single drop to each eye on day 11 by LC-MS/MS analysis; format: ADME; conditions: topical or ocular, 4 uL of 0.3% suspension per eye
[17] = tested on: Rattus norvegicus; assay: Antiangiogenic activity in Brown Norway rat laser-induced choroidal neovascularization model assessed as inhibition of neovascularization administered 3% suspension using 4 uL topical drop to both eyes every 4.5 hrs for 9 hrs by microscopic analysis; format: functional
[18] = tested on: Rattus norvegicus; assay: Antiangiogenic activity in Brown Norway rat laser-induced choroidal neovascularization model assessed as inhibition of neovascularization administered topical drop to both eyes as qd by microscopic analysis; format: functional
[19] = tested on: Rattus norvegicus; assay: Antiangiogenic activity in Brown Norway rat laser-induced choroidal neovascularization model assessed as inhibition of neovascularization administered both eyes every 3 hrs for 9 hrs by microscopic analysis; format: functional
[20] = tested on: Rattus norvegicus; assay: Antiangiogenic activity in Brown Norway rat laser-induced choroidal neovascularization model assessed as inhibition of neovascularization administered both eyes every 4.5 hrs for 9 hrs by microscopic analysis; format: functional
[21] = AUC (0 to 6 hrs) in cynomolgus monkey plasma administered 1% solution using 30 uL topical drop to both eyes as single dose by LC-MS/MS analysis; format: ADME, Macaca fascicularis; set-up: time < 6 hr, dose 30 uL, route ophthalmic; conditions: topical or ocular, 30 uL of 1% solution per eye
[22] = Cmax in cynomolgus monkey plasma administered 1% solution using 30 uL topical drop to both eyes as single dose by LC-MS/MS analysis; format: ADME, Macaca fascicularis; set-up: dose 30 uL, route ophthalmic; conditions: topical or ocular, 30 uL of 1% solution per eye
[23] = Half life in cynomolgus monkey plasma administered 1% solution using 30 uL topical drop to both eyes as single dose by LC-MS/MS analysis; format: ADME, Macaca fascicularis; conditions: topical or ocular, 30 uL of 1% solution per eye
[24] = Tmax in cynomolgus monkey plasma administered 1% solution using 30 uL topical drop to both eyes as single dose by LC-MS/MS analysis; format: ADME, Macaca fascicularis; conditions: topical or ocular, 30 uL of 1% solution per eye
[25] = AUC (0 to 6 hrs) in cynomolgus monkey plasma administered 1% suspension using 30 uL topical drop to both eyes as single dose by LC-MS/MS analysis; format: ADME, Macaca fascicularis; set-up: time < 6 hr, dose 30 uL, route ophthalmic; conditions: topical or ocular, 30 uL of 1% suspension per eye
[26] = Cmax in cynomolgus monkey plasma administered 1% suspension using 30 uL topical drop to both eyes as single dose by LC-MS/MS analysis; format: ADME, Macaca fascicularis; set-up: dose 30 uL, route ophthalmic; conditions: topical or ocular, 30 uL of 1% suspension per eye
[27] = Half life in cynomolgus monkey plasma administered 1% suspension using 30 uL topical drop to both eyes as single dose by LC-MS/MS analysis; format: ADME, Macaca fascicularis; conditions: topical or ocular, 30 uL of 1% suspension per eye
[28] = Tmax in cynomolgus monkey plasma administered 1% suspension using 30 uL topical drop to both eyes as single dose by LC-MS/MS analysis; format: ADME, Macaca fascicularis; conditions: topical or ocular, 30 uL of 1% suspension per eye

Sequence of Vascular endothelial growth factor receptor 2 (P35968 whole entry): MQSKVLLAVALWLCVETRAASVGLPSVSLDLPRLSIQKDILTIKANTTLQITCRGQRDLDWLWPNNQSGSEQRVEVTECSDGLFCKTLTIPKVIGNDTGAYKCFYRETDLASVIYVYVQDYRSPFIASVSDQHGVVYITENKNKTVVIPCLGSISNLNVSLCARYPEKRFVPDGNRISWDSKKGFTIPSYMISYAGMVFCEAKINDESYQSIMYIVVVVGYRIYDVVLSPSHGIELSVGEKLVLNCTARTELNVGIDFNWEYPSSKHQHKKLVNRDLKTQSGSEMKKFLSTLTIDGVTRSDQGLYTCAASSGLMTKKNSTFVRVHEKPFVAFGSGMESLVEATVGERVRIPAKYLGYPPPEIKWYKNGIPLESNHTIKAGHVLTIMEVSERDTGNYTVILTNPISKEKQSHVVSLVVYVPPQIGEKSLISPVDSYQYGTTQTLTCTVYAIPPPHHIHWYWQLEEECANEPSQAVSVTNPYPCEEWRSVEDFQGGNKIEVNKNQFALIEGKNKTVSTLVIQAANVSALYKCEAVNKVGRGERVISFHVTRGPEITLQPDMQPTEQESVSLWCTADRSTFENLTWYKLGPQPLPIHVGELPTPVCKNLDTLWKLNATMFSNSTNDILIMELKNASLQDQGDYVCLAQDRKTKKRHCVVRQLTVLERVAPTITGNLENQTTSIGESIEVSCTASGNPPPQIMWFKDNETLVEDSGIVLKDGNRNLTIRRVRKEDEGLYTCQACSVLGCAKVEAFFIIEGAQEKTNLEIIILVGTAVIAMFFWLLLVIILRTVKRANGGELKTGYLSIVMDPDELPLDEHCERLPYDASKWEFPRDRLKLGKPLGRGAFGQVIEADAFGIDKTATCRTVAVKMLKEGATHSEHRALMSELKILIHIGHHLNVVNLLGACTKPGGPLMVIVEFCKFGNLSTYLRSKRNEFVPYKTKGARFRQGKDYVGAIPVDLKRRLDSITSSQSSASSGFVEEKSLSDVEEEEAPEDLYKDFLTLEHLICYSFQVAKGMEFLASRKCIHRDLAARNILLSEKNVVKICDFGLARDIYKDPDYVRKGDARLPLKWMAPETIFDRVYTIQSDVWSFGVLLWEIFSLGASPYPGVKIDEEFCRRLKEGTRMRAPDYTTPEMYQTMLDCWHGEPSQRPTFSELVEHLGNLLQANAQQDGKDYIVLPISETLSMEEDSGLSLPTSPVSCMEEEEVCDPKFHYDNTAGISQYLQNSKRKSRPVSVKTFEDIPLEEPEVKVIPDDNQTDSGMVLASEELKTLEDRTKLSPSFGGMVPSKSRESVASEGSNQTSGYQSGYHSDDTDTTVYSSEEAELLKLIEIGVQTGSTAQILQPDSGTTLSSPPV

## O=C(Nc1cc(C2CC2)on1)n1ccc2cc(Oc3ncnc4c3CCNC4)ccc21
[1]
  inhibition: inactive

## O=C(Nc1cc(C2CCOCC2)on1)n1ccc2cc(Oc3ncnc4c3CNC4)ccc21
[1]
  inhibition: inactive

## O=C(Nc1cc(C2(CO)CC2)on1)n1ccc2cc(Oc3ncnc4c3CNC4)ccc21
[1]
  inhibition: inactive

## CNCc1cc(Oc2ccc3c(ccn3C(=O)Nc3cccc(C(F)(F)F)c3)c2)ncn1
[2]
  microsomal CLint at 1 µM: 43 µL/min/mg

## Nc1nccc(Oc2ccc3c(C(=O)Nc4cccc(C(F)(F)F)c4)cccc3c2)n1
[3]
  IC50: 1.7 nM
[4]
  inhibition: inactive

## CNCc1cc(Oc2ccc3c(ccn3C(=O)Nc3cc(C(F)(F)F)n(C)n3)c2)ncn1
[5]
  AUC(0-t): 52 µM·h
[6]
  Cmax: 5690 nM
[7]
  AUC(0-t): 4.63 µM·h
[8]
  Cmax: 683 nM
[9]
  AUC(0-t): 0.0343 µM·h
[10]
  Cmax: 36.6 nM
[11]
  AUC(0-t): 515 µM·h
[12]
  Cmax: 31800 nM
[13]
  AUC(0-t): 14.3 µM·h
[14]
  Cmax: 1910 nM
[15]
  AUC(0-t): 0.0244 µM·h
[16]
  Cmax: 32.1 nM
[2]
  microsomal CLint at 1 µM: 156 µL/min/mg
[17]
  inhibition (INH): 94%
[18]
  ED50: 1.4%
[19]
  ED50: 0.5%
  ED90: 1.2%
[20]
  ED50: 1%
  ED90: 2.6%
[21]
  AUC(0-t) at 6 h: 0.0644 µM·h
[22]
  Cmax: 26.9 nM
[23]
  half-life: 1.61 h
[24]
  Tmax: 0.67 h
[25]
  AUC(0-t) at 6 h: 0.0227 µM·h
[26]
  Cmax: 5.38 nM
[27]
  half-life: 4.38 h
[28]
  Tmax: 1.67 h

## CNCc1cc(Oc2ccc3c(ccn3C(=O)Nc3cc(C(F)(F)F)[nH]n3)c2)ncn1
[2]
  microsomal CLint at 1 µM: 131 µL/min/mg

## CNCc1cc(Oc2ccc3c(ccn3C(=O)Nc3cc(C(C)C)[nH]n3)c2)ncn1
[2]
  microsomal CLint at 1 µM: 52.3 µL/min/mg
